The structures appear in SMILES notation. Some results are limits rather than exact numbers.

Here are results for 24 molecules from patent publication US20040142971A1, “BENZOTHIOPHENE COMPOUNDS HAVING ANTIINFECTIVE ACTIVITY” (GeneSoft, Inc., priority 2001, published 2004).

Test in all cases: MIC, NCCLS broth microdilution
Test [1] relates to B. Cereus ATCC 11778. Format: cell-based, Bacillus cereus. The note with it: A = B. Cereus ATCC 11778. An excerpt:
(§1) In vitro biological activity data were collected for a variety of microorganisms, including Bacillus cereus (ATCC 11778), Staphylococcus aureus (ATCC 27660 (a methicillin resistant strain (MRSA), ATCC 33591 and ATCC 43300); ATCC 13709, a methicillin sensitive strain (MSSA)); Streptococcus pneumoniae (ATCC 51422, a penicillin resistant strain (PRSP)), Enterococcus faecium (ATCC 51559, a vancomycin resistant strain (VRE)), and Staphylococcus epidermidis (ATCC 700586, a methycillin resistant strain (MRSE)). Additionally, antifungal activity data were collected for Candida albicans (ATCC 38247). Minimal inhibition concentrations (MIC's) were determined using the National Committee for Clinical Laboratory Standards (NCCLS) broth microdilution assay in microtiter plates, as set forth in: (1) the guidelines of the National Committee for Clinical Laboratory Standards (NCCLS) Document M7-A4 (NCCLS, 1997); (2) the guidelines of the National Committee for Clinical Laboratory Standards (NCCLS) Document M11-A4 (NCCLS, 1997); and (3) the guidelines and reference method of the National Committee for Clinical Laboratory Standards (NCCLS) Document M27-T (NCCLS, 1995). For antifungal essays, the method recommended in Murray, PR., 1995 Manual of Clinical Microbiology (ASM Press, Washington, D.C.), was employed.

For test [2], the system named is S. aureus ATCC 13709 (methicillin sensitive strain, MSSA). Format: cell-based, Staphylococcus aureus. To be noted: C = S. aureus ATCC 13709.
Source text: as §1

For test [3], the system named is S. aureus ATCC 27660 (methicillin resistant strain, MRSA). Format: cell-based, Staphylococcus aureus. To be noted: D = S. aureus ATCC 27660.
Source text: as §1

Test [4] deals with S. aureus ATCC 33591. In kind it is cell-based, Staphylococcus aureus. To be noted: E = S. aureus ATCC 33591.
Source text: as §1

Regarding `Cn1cc(NC(=O)c2cc(NC(=O)c3sc4ccccc4c3Cl)cn2C)cc1C(=O)NCCN1CCC(O)CC1` [Ib-20a], the “Minimum Inhibitory Concentration (MIC)” value in test [1], in test [2] and in test [3] was “+++ (+++ = MIC ≦ 4)” each time.

Regarding `Cn1cc(NC(=O)c2cc(NC(=O)c3cc(NC(=O)c4sc5ccccc5c4Cl)cn3C)cn2C)cc1C(=O)NCC[N+]1(C)CCOCC1` [Ib-20b], the “Minimum Inhibitory Concentration (MIC)” value in test [1], in test [2], in test [4] and in test [3] was “+++ (+++ = MIC ≦ 4)” in each case.

On to `Cc1ccc2c(Cl)c(C(=O)Nc3cc(C(=O)Nc4cc(C(=O)Nc5cc(C(=O)NCCN6CCOCC6)n(C)c5)n(C)c4)n(C)c3)sc2c1` [Ib-20c], for which the “Minimum Inhibitory Concentration (MIC)” value in test [1], in test [2], in test [4] and in test [3] was “+++ (+++ = MIC ≦ 4)” in each case.

As for `Cn1cc(NC(=O)c2sc3cc4c(cc3c2Cl)OCO4)cc1C(=O)NCCN1CCOCC1` [Ib-20f], the “Minimum Inhibitory Concentration (MIC)” value in test [1], in test [2], in test [4] and in test [3] was “+++ (+++ = MIC ≦ 4)” each time.

For `CCN(CC)CCNC(=O)c1cc(NC(=O)c2cc(NC(=O)c3cc(NC(=O)c4sc5cc6c(cc5c4Cl)OCO6)cn3C)cn2C)cn1C` [Ib-20h], the “Minimum Inhibitory Concentration (MIC)” value in test [1], in test [2], in test [4] and in test [3] was “+++ (+++ = MIC ≦ 4)” each time.

As for `Cn1cc(NC(=O)c2cc(NC(=O)c3cc(NC(=O)c4sc5cc6c(cc5c4Cl)OCO6)cn3C)cn2C)cc1C(=O)NCCN1CCSCC1` [Ib-20i], the “Minimum Inhibitory Concentration (MIC)” value in test [1], in test [2] and in test [3] was “+++ (+++ = MIC ≦ 4)” throughout.

Take `Cn1cc(NC(=O)c2cc(NC(=O)c3cc(NC(=O)c4sc5cc([N+](=O)[O-])ccc5c4Cl)cn3C)cn2C)cc1C(=O)NCCN1CCOCC1` [Ib-20j]: the “Minimum Inhibitory Concentration (MIC)” value in test [1], in test [2], in test [4] and in test [3] was “+++ (+++ = MIC ≦ 4)” throughout.

For `CN(C)c1ccc2c(Cl)c(C(=O)Nc3cc(C(=O)Nc4cc(C(=O)Nc5cc(C(=O)NCCN6CCOCC6)n(C)c5)n(C)c4)n(C)c3)sc2c1` [Ib-20k], the figures for the “Minimum Inhibitory Concentration (MIC)” value in test [1], in test [2] and in test [3] were over 32 µg/mL, “+++ (+++ = MIC ≦ 4)” and “+++ (+++ = MIC ≦ 4)”, respectively.

For the molecule `Cn1cc(NC(=O)c2cc(NC(=O)c3cc(NC(=O)c4sc5cc6c(cc5c4Cl)OCO6)cn3C)cn2C)cc1C(=O)NCCN1CCCCC1` [Ib-20l], the “Minimum Inhibitory Concentration (MIC)” value in test [1], in test [2], in test [4] and in test [3] was “+++ (+++ = MIC ≦ 4)” in each case.

On to `Cn1cc(NC(=O)c2sc3cc4c(cc3c2Cl)OCO4)cc1C(=O)NCCN1CCCCC1` [Ib-20n], for which the “Minimum Inhibitory Concentration (MIC)” value in test [1], in test [2], in test [4] and in test [3] was “+++ (+++ = MIC ≦ 4)” in each case.

Consider `Cn1cc(NC(=O)c2sc3cc4c(cc3c2Cl)OCO4)cc1C(=O)NCCN1CCC(F)(F)CC1` [Ib-20q], for which the “Minimum Inhibitory Concentration (MIC)” value in test [1] was over 32 µg/mL; in test [2], “+++ (+++ = MIC ≦ 4)”; in test [4], “+++ (+++ = MIC ≦ 4)”; in test [3], “+++ (+++ = MIC ≦ 4)”.

For the molecule `Cn1cc(NC(=O)c2cc3cc4c(cc3s2)OCO4)cc1C(=O)NCCN1CCOCC1` [Ib-20t], the “Minimum Inhibitory Concentration (MIC)” value in test [1], in test [2], in test [4] and in test [3] was “+++ (+++ = MIC ≦ 4)” in each case.

Regarding `Cn1cc(NC(=O)c2cc(NC(=O)c3cc4cc5c(cc4s3)OCO5)cn2C)cc1C(=O)NCCN1CCOCC1` [Ib-20u], the “Minimum Inhibitory Concentration (MIC)” value in test [1], in test [2], in test [4] and in test [3] was “+++ (+++ = MIC ≦ 4)” in each case.

Take `Cn1cc(NC(=O)c2cc(NC(=O)c3cc(NC(=O)c4cc5cc6c(cc5s4)OCO6)cn3C)cn2C)cc1C(=O)NCCN1CCOCC1` [Ib-20v]: the “Minimum Inhibitory Concentration (MIC)” value in test [1], in test [2], in test [4] and in test [3] was “+++ (+++ = MIC ≦ 4)” each time.

Turning to `Cn1cc(NC(=O)c2cc3cc4c(cc3s2)OCO4)cc1C(=O)NCCN1CCSCC1` [Ib-20w], the “Minimum Inhibitory Concentration (MIC)” value in test [1], in test [2], in test [4] and in test [3] was “+++ (+++ = MIC ≦ 4)” each time.

Turning to `Cn1cc(NC(=O)c2cc3cc4c(cc3s2)OCO4)cc1C(=O)NCCN1CCCC1` [Ib-20x], the “Minimum Inhibitory Concentration (MIC)” value in test [1], in test [2], in test [4] and in test [3] was “+++ (+++ = MIC ≦ 4)” throughout.

As to `Cn1cc(NC(=O)c2cc(NC(=O)c3cc(NC(=O)c4cc5ccccc5cn4)cs3)cn2C)cc1C(=O)NCCN1CCOCC1` [Ib-51], the “Minimum Inhibitory Concentration (MIC)” value in test [1], in test [2] and in test [3] was “+++ (+++ = MIC ≦ 4)” each time.

As for `Cn1cc(NC(=O)c2cc3ccccc3cn2)cc1C(=O)Nc1cc(C(=O)Nc2cc(C(=O)NCCN3CCOCC3)ns2)n(C)c1` [Ib-52], the “Minimum Inhibitory Concentration (MIC)” value was “+++ (+++ = MIC ≦ 4)” in test [1]; “+++ (+++ = MIC ≦ 4)” in test [2]; “++ (++ = MIC between 4 and 12)” in test [3].

Take `CCN(CC)CCNC(=O)c1cc(NC(=O)c2cc(NC(=O)c3cc(NC(=O)c4cc5ccccc5cn4)cn3C)cn2C)sn1` [Ib-53]: the “Minimum Inhibitory Concentration (MIC)” value was “++ (++ = MIC between 4 and 12)” in test [1]; “++ (++ = MIC between 4 and 12)” in test [2]; “+ (+ = MIC from 12 to 32, inclusive)” in test [3].

Consider `Cn1cc(NC(=O)c2cc3ccccc3cn2)cc1C(=O)Nc1cc(C(=O)Nc2c[nH]c(C(=O)NCCN3CCSCC3)c2)n(C)c1` [Ib-54], for which the “Minimum Inhibitory Concentration (MIC)” value is “++ (++ = MIC between 4 and 12)” in test [1]; “+ (+ = MIC from 12 to 32, inclusive)” in test [2]; “+ (+ = MIC from 12 to 32, inclusive)” in test [3].

Turning to `Cn1cc(NC(=O)c2cc(NC(=O)c3cc(NC(=O)c4cc5ccccc5cn4)cn3C)cn2CCN2CCOCC2)cc1C(=O)NCCN1CCOCC1` [Ib-57], the “Minimum Inhibitory Concentration (MIC)” value in test [1], in test [2], in test [4] and in test [3] was “+++ (+++ = MIC ≦ 4)” throughout.

Take `Cn1cc(NC(=O)c2cc3ccccc3cn2)cc1C(=O)Nc1cc(C(=O)Nc2cn(C)c(C(=O)NCCN3CCOCC3)n2)n(C)c1` [Ib-58]: the “Minimum Inhibitory Concentration (MIC)” value in test [1], in test [2], in test [4] and in test [3] was “+++ (+++ = MIC ≦ 4)” in each case.

Turning to `CN(C)CCSCCn1cc(NC(=O)c2cc3ccccc3cn2)cc1C(=O)Nc1cc(C(=O)Nc2ccc3cnccc3c2)n(C)c1` [Ib-73], the “Minimum Inhibitory Concentration (MIC)” value in test [1], in test [2], in test [4] and in test [3] was “+++ (+++ = MIC ≦ 4)” each time.

With `Cn1cc(NC(=O)c2cc3ccccc3cn2)cc1C(=O)Nc1cc(C(=O)Nc2ccc3sc(C(=O)NCCN4CCOCC4)cc3c2)n(C)c1` [Id-1], the “Minimum Inhibitory Concentration (MIC)” value in test [1] was over 32 µg/mL.
